Laboratory results reported in the NIST ThermoML archive (doi:10.1016/j.fluid.2007.06.001).

Assays:
[1] = excess molar enthalpy (molar enthalpy of mixing); xn = mol fraction of the nth substance listed; conditions: Liquid
[2] = Liquid

CCn1cc[n+](C)c1.O=S(=O)([N-]S(=O)(=O)C(F)(F)F)C(F)(F)F + CCO
[1], 323.15 K, 101.3 kPa
Conditions | excess molar enthalpy [kcal/mol]
x2 = 0.0529 | 0.0909
x2 = 0.1017 | 0.163
x2 = 0.1885 | 0.297
x2 = 0.3291 | 0.463
x2 = 0.5246 | 0.586
x2 = 0.7259 | 0.525
x2 = 0.8436 | 0.384
x2 = 0.9687 | 0.105

CCCCCC[n+]1ccn(C)c1.O=S(=O)([N-]S(=O)(=O)C(F)(F)F)C(F)(F)F + Cc1ccccc1
[1], 363.15 K, 101 kPa
Conditions | excess molar enthalpy [kcal/mol]
x2 = 0.0501 | -0.0218
x2 = 0.1001 | -0.0441
x2 = 0.1501 | -0.0645
x2 = 0.2002 | -0.0866
x2 = 0.3002 | -0.125
x2 = 0.4503 | -0.169
x2 = 0.6003 | -0.183
x2 = 0.7002 | -0.164
x2 = 0.8002 | -0.116
x2 = 0.8501 | -0.0868
x2 = 0.9001 | -0.0571
x2 = 0.9501 | -0.0288

CCCC[n+]1ccn(C)c1.O=S(=O)([N-]S(=O)(=O)C(F)(F)F)C(F)(F)F + Cc1ccccc1
[1], 363.15 K, 101 kPa
Conditions | excess molar enthalpy [kcal/mol]
x2 = 0.0653 | -0.023
x2 = 0.1255 | -0.0435
x2 = 0.1811 | -0.0624
x2 = 0.2325 | -0.0772
x2 = 0.2803 | -0.0908
x2 = 0.3249 | -0.101
x2 = 0.4054 | -0.122
x2 = 0.4761 | -0.133
x2 = 0.5389 | -0.139
x2 = 0.6451 | -0.135
x2 = 0.7317 | -0.108
x2 = 0.8035 | -0.0824
x2 = 0.8911 | -0.0447
x2 = 0.9608 | -0.0171

CCCCCC[n+]1ccn(C)c1.O=S(=O)([N-]S(=O)(=O)C(F)(F)F)C(F)(F)F + c1ccccc1
[1], 363.15 K, 101 kPa
Conditions | excess molar enthalpy [kcal/mol]
x2 = 0.0854 | -0.0378
x2 = 0.1608 | -0.0698
x2 = 0.2279 | -0.0993
x2 = 0.288 | -0.12
x2 = 0.3421 | -0.142
x2 = 0.3912 | -0.163
x2 = 0.4765 | -0.191
x2 = 0.5482 | -0.21
x2 = 0.6094 | -0.214
x2 = 0.7082 | -0.206
x2 = 0.7845 | -0.183
x2 = 0.8452 | -0.138
x2 = 0.9161 | -0.0683
x2 = 0.9704 | -0.0212

CCCC[n+]1ccn(C)c1.O=S(=O)([N-]S(=O)(=O)C(F)(F)F)C(F)(F)F + c1ccccc1
[1], 101.3 kPa
Conditions | excess molar enthalpy [kcal/mol]
363.15 K, x2 = 0.0498 | -0.0235
363.15 K, x2 = 0.0997 | -0.0451
363.15 K, x2 = 0.1495 | -0.0678
363.15 K, x2 = 0.1994 | -0.0875
363.15 K, x2 = 0.2992 | -0.127
363.15 K, x2 = 0.4491 | -0.176
363.15 K, x2 = 0.5991 | -0.206
363.15 K, x2 = 0.6992 | -0.198
363.15 K, x2 = 0.7994 | -0.147
363.15 K, x2 = 0.8495 | -0.112
363.15 K, x2 = 0.8997 | -0.0716
363.15 K, x2 = 0.9498 | -0.0353
413.15 K, x2 = 0.1462 | -0.0688
413.15 K, x2 = 0.2087 | -0.0954
413.15 K, x2 = 0.2654 | -0.12
413.15 K, x2 = 0.3172 | -0.142
413.15 K, x2 = 0.3647 | -0.166
413.15 K, x2 = 0.4485 | -0.196
413.15 K, x2 = 0.5202 | -0.212
413.15 K, x2 = 0.5823 | -0.22
413.15 K, x2 = 0.6844 | -0.217
413.15 K, x2 = 0.7648 | -0.186
413.15 K, x2 = 0.8299 | -0.142
413.15 K, x2 = 0.907 | -0.0792
413.15 K, x2 = 0.967 | -0.0313

CCCCCCCCC [nonane]
Conditions | vapor or sublimation pressure [kPa]
[2], 353.15 K | 9.65

C=CCCCCCC [oct-1-ene]
Conditions | vapor or sublimation pressure [kPa]
[2], 363.15 K | 38.51

C=CCCCCCC [oct-1-ene] + CCCCCC[n+]1ccn(C)c1.O=S(=O)([N-]S(=O)(=O)C(F)(F)F)C(F)(F)F
[1], 413.15 K, 101 kPa
Conditions | excess molar enthalpy [kcal/mol]
x1 = 0.0504 | 0.0404
x1 = 0.0982 | 0.0729
x1 = 0.1437 | 0.102
x1 = 0.1869 | 0.131
x1 = 0.2281 | 0.142
x1 = 0.2675 | 0.141
x1 = 0.3409 | 0.13
x1 = 0.4082 | 0.116
x1 = 0.47 | 0.103
x1 = 0.5797 | 0.0815
x1 = 0.6742 | 0.0617
x1 = 0.7563 | 0.0472
x1 = 0.8613 | 0.0272

CCCCCCCC [octane]
Conditions | vapor or sublimation pressure [kPa]
[2], 353.15 K | 23.16

CCC(=O)CC [pentan-3-one] + CCCCCC[n+]1ccn(C)c1.O=S(=O)([N-]S(=O)(=O)C(F)(F)F)C(F)(F)F
[1], 353.15 K, 101 kPa
Conditions | excess molar enthalpy [kcal/mol]
x1 = 0.0503 | -0.0247
x1 = 0.1005 | -0.0527
x1 = 0.1507 | -0.0794
x1 = 0.2009 | -0.107
x1 = 0.3011 | -0.156
x1 = 0.4013 | -0.198
x1 = 0.5013 | -0.24
x1 = 0.6013 | -0.266
x1 = 0.7011 | -0.276
x1 = 0.8009 | -0.249
x1 = 0.9005 | -0.177
x1 = 0.9503 | -0.109
